Experimental findings from PubChem BioAssay (NCI) are described below.

Structures are written as SMILES.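 Dose response: 5 concentrations. Exposure: 48 h. Format: 96-well plates. Endpoint: linear interpolation; highest concentration if not reached. TGI denotes the concentration required for complete inhibition of growth.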

Among the test systems are MDA-MB-231 breast; HOP-92 NSCLC; SNB-19 CNS; RXF 393 renal; SK-MEL-2 melanoma; MOLT-4 leukemia; UACC-257 melanoma; OVCAR-5 ovarian.
Holding throughout (test): NCI tumour cell line growth inhibition, 48 h

On to `COC(=O)Nc1nc2ccc(NC(=O)c3ccc(I)cc3)cc2[nH]1`, for which the TGI in the assay on MDA-MB-231 breast, in the assay with HOP-92 NSCLC, in the assay on SNB-19 CNS, in the assay on RXF 393 renal, in the assay on SK-MEL-2 melanoma and in the assay on MOLT-4 leukemia was above 100 µM throughout. The TGI in the assay with UACC-257 melanoma and in the assay on OVCAR-5 ovarian was above 100 µM each time.
Turning to `NC(N)=NC1C(O)C(O)C(O)C(N=C(N)N)C1O` (stereo not drawn), the TGI with MDA-MB-231 breast, in the assay on HOP-92 NSCLC, in the assay with SNB-19 CNS, in the assay with RXF 393 renal, in the assay on SK-MEL-2 melanoma and in the assay on MOLT-4 leukemia was above 100 µM throughout. Moreover, the TGI in the assay on UACC-257 melanoma and with OVCAR-5 ovarian was above 100 µM in each case.
Consider `O=C(c1ccc(Cl)cc1)N1CCN=C1c1cc2ccccc2c2ccccc12`, for which the TGI in the assay on MDA-MB-231 breast was 29.9 µM; in the assay with HOP-92 NSCLC, 26.3 µM; in the assay on SNB-19 CNS it was 30.5 µM; in the assay on RXF 393 renal it was 30.6 µM; in the assay with SK-MEL-2 melanoma, 31.4 µM; in the assay with MOLT-4 leukemia, above 100 µM. Also, the TGI with UACC-257 melanoma was found to be 31.8 µM; in the assay on OVCAR-5 ovarian it was 35.1 µM.
Take `COc1ccccc1NC(=O)CC(=O)NN`: the TGI in the assay with MDA-MB-231 breast, in the assay on HOP-92 NSCLC, in the assay with SNB-19 CNS, with RXF 393 renal, in the assay with SK-MEL-2 melanoma and in the assay with MOLT-4 leukemia was above 100 µM in each case. Further, the TGI in the assay on UACC-257 melanoma and in the assay on OVCAR-5 ovarian was above 100 µM throughout.
Consider `Cc1nc(Nc2ccccc2Cl)sc1C(=O)CC(=O)C(N)=O`, for which the TGI with MDA-MB-231 breast, in the assay with HOP-92 NSCLC, with SNB-19 CNS, in the assay on RXF 393 renal, in the assay with SK-MEL-2 melanoma and with MOLT-4 leukemia was above 100 µM throughout. Besides, the TGI with UACC-257 melanoma and in the assay with OVCAR-5 ovarian was above 100 µM in each case.
Consider `CC(CNC(N)=O)NC(N)=O` (stereo not drawn), for which the TGI in the assay on MDA-MB-231 breast, with HOP-92 NSCLC, in the assay with SNB-19 CNS, in the assay on RXF 393 renal, in the assay with SK-MEL-2 melanoma and in the assay with MOLT-4 leukemia was above 100 µM throughout. In addition, the TGI in the assay with UACC-257 melanoma and in the assay on OVCAR-5 ovarian was above 100 µM throughout.
As for `CC1(C)CC[C@]2(C(=O)O)CC[C@]3(C)[C@H](C(=O)C=C4[C@@]5(C)C=C(C#N)C(=O)C(C)(C)[C@@H]5CC[C@]43C)[C@@H]2C1`, the TGI in the assay on MDA-MB-231 breast was 7.34 µM; in the assay on HOP-92 NSCLC, 8.16 µM; in the assay on SNB-19 CNS, 3.64 µM; with RXF 393 renal it was 1.5 µM; in the assay with SK-MEL-2 melanoma it was 3.88 µM; in the assay on MOLT-4 leukemia it was 13.9 µM. The TGI stood at 2.84 µM in the assay with UACC-257 melanoma and 2.12 µM in the assay with OVCAR-5 ovarian.
`O=C1NC(Cc2ccc(O)cc2)C(=O)NC1Cc1ccc(O)cc1` (stereo not drawn): the TGI in the assay with MDA-MB-231 breast, with HOP-92 NSCLC, with SNB-19 CNS, in the assay with RXF 393 renal, in the assay on SK-MEL-2 melanoma and in the assay with MOLT-4 leukemia was above 100 µM in each case. For the same compound, the TGI with UACC-257 melanoma and with OVCAR-5 ovarian was above 100 µM in each case.
With `CCOc1cc2c(cc1O)C(O)C[C@@H]1[C@@H]2CC[C@]2(C)[C@@H](O)CC[C@@H]12` (stereo partly drawn), the TGI in the assay with MDA-MB-231 breast was above 66 µM; with HOP-92 NSCLC it was above 100 µM; with SNB-19 CNS, above 61.8 µM; in the assay with RXF 393 renal it was 5.25 µM; with SK-MEL-2 melanoma, above 100 µM; with MOLT-4 leukemia, above 100 µM. The TGI with UACC-257 melanoma and in the assay on OVCAR-5 ovarian was above 100 µM throughout.
Regarding `CCCCCCCCC#CCCCCCCCCCC[C@@H]1C(=O)O[C@H](C)[C@@H]1O` (tested in a mixture with another compound), the TGI with MDA-MB-231 breast came to 94.6 µM; in the assay on HOP-92 NSCLC, 25.1 µM; with SNB-19 CNS, 38.1 µM; in the assay with RXF 393 renal it was 28.4 µM; in the assay on SK-MEL-2 melanoma it was 46.4 µM; in the assay on MOLT-4 leukemia, 33.5 µM. For the same compound, the TGI in the assay with UACC-257 melanoma and with OVCAR-5 ovarian was above 100 µM in each case.
As to `CC(C)CCOC(=O)NC(Nc1ccc(F)cc1)(C(F)(F)F)C(F)(F)F`, the TGI was 76.1 µM in the assay with MDA-MB-231 breast; above 100 µM with HOP-92 NSCLC; above 100 µM in the assay with SNB-19 CNS; above 100 µM with RXF 393 renal; above 100 µM with SK-MEL-2 melanoma; 76.8 µM in the assay with MOLT-4 leukemia. Besides, the TGI in the assay with UACC-257 melanoma and in the assay on OVCAR-5 ovarian was above 100 µM in each case.
Take `Cc1nc(-c2cc3ccccc3oc2=O)cs1`: the TGI with MDA-MB-231 breast was 72.6 µM; with HOP-92 NSCLC, 53.9 µM; with SNB-19 CNS, above 100 µM; with RXF 393 renal, above 100 µM; with SK-MEL-2 melanoma it was above 100 µM; in the assay on MOLT-4 leukemia, above 100 µM. For the same compound, the TGI in the assay on UACC-257 melanoma and with OVCAR-5 ovarian was above 100 µM throughout.
With `CC(=O)OCC1OC(n2c(C)c(C)c(C)c(C#N)c2=S)C(OC(C)=O)C(OC(C)=O)C1OC(C)=O` (stereo not drawn), the TGI is above 100 µM in the assay with MDA-MB-231 breast; above 100 µM in the assay with HOP-92 NSCLC; above 100 µM in the assay on SNB-19 CNS; 57.6 µM in the assay on RXF 393 renal; 78.2 µM with SK-MEL-2 melanoma; above 100 µM in the assay on MOLT-4 leukemia. Further, the TGI with UACC-257 melanoma and in the assay on OVCAR-5 ovarian was above 100 µM in each case.
Regarding `CC(C)(C)OC(=O)c1ccc(NCC2=C(Br)C(=O)C=CC2=O)cc1`, the TGI is 47 µM in the assay on MDA-MB-231 breast; 28.4 µM in the assay with HOP-92 NSCLC; above 100 µM with SNB-19 CNS; 37.5 µM with RXF 393 renal; above 71.1 µM in the assay on SK-MEL-2 melanoma; 45.7 µM in the assay on MOLT-4 leukemia. Further, the TGI in the assay on UACC-257 melanoma turned out to be 61.3 µM; with OVCAR-5 ovarian it was 56.1 µM.
With `CC(C)(C)C1=C(Br)C(O)(C(C)(C)C)OP1(=O)c1ccccc1` (stereo not drawn), the TGI in the assay with MDA-MB-231 breast, in the assay with HOP-92 NSCLC, in the assay on SNB-19 CNS, in the assay on RXF 393 renal, in the assay with SK-MEL-2 melanoma and with MOLT-4 leukemia was above 100 µM throughout. Moreover, the TGI with UACC-257 melanoma and in the assay on OVCAR-5 ovarian was above 100 µM in each case.
For `Cc1cc(S(=O)(=O)/N=C(/NN)Nc2ccc(Cl)cc2)c(S)cc1Cl`, the TGI in the assay on MDA-MB-231 breast was determined as 84.2 µM; in the assay with HOP-92 NSCLC it was 67.9 µM; in the assay with SNB-19 CNS, 25.3 µM; in the assay on RXF 393 renal, 78.8 µM; in the assay on SK-MEL-2 melanoma it was 76.9 µM; in the assay on MOLT-4 leukemia, 58.9 µM. For the same compound, the TGI was 72.5 µM in the assay on UACC-257 melanoma and 12.9 µM in the assay with OVCAR-5 ovarian.
